These results are taken from patent US20130150330A1, “DECOQUINATE PRODRUGS” (UNIVERSITY OF KANSAS, priority 2011, published 2013).

A short description of this data set: Solubility in water, increasing amounts added to 1 mL deionized water. The class given is physicochemical. The conditions noted are these: decoquinate without the prodrug moiety, comparison. The method, then:
Comparatively, decoquinate without the prodrug moiety is practically insoluble in water (<0.05 mg/ml). Improved solubility in water allows administration of the decoquinate prodrug by the intravenous and intramuscular routes. Additionally, water solubility also makes oral administration feasible by improving absorption from the GI tract.

SMILES strings stand for the structures.

One may read the solubility as the dissolved amount per volume that the medium holds. For the compound `CCCCCCCCCCOc1cc2c(O)c(C(=O)OCC)cnc2cc1OCC` [decoquinate, ethyl 6-(decyloxy)-7-ethoxy-4-oxo-1,4-dihydroquinoline-3-carboxylate], the solubility was less than 50 µg/mL.
